Assays:
Experiment in all cases: radiometric filter-binding kinase assay
CHEK2 (human) = CHEK2 (human) (UniProt O96017)
CLK2 (human) = CLK2 (human) (UniProt P49760)
DAPK1 (human) = DAPK1 (human) (UniProt P53355)
DYRK2 (human) = DYRK2 (human) (UniProt Q92630)
DYRK3 (human) = DYRK3 (human) (UniProt O43781)
EPHA2 (human) = EPHA2 (human) (UniProt P29317)
EPHB1 (human) = EPHB1 (human) (UniProt P54762); conditions: compound 10.0 µM
EPHB2 (human) = EPHB2 (human) (UniProt P29323)
EPHB4 (human) = EPHB4 (human) (UniProt P54760)
FLT1 (human) = FLT1 (human) (UniProt P17948)
GCK (human) = GCK (human) (UniProt Q12851)
HIPK2 (human) = HIPK2 (human) (UniProt Q9H2X6)
IKBKE (human) = IKBKE (human) (UniProt Q14164)
IRAK4 (human) = IRAK4 (human) (UniProt Q9NWZ3)
MAPK12 (human) = MAPK12 (human) (UniProt P53778)
MAPK14 (human) = MAPK14 (human) (UniProt Q16539)
MAPKAPK2 (human) = MAPKAPK2 (human) (UniProt P49137)
MAPKAPK5 (human) = MAPKAPK5 (human) (UniProt Q8IW41)
MARK1 (human) = MARK1 (human) (UniProt Q9P0L2)
MARK2 (human) = MARK2 (human) (UniProt Q7KZI7)
MELK (human) = MELK (human) (UniProt Q14680)
MYLK (human) = MYLK (human) (UniProt Q15746)
NEK2 (human) = NEK2 (human) (UniProt P51955)
PIM1 (human) = PIM1 (human) (UniProt P11309)
PIM3 (human) = PIM3 (human) (UniProt Q86V86)
PKN2 (human) = PKN2 (human) (UniProt Q16513)
PRKCA (human) = PRKCA (human) (UniProt P17252); conditions: compound 10.0 µM
ROCK2 (rat) = conditions: accession and sequence are those of the human protein
RPS6KA1 KD1 KD2 (human) = RPS6KA1 KD1 KD2 (human) (UniProt Q15418)
[1] = test system: RPS6KB1 (human), P23443 [T412E]
[2] = test system: SGK1 (human), O00141 [S422D]
STK3 (human) = STK3 (human) (UniProt Q13188)
TAOK1 (human) = TAOK1 (human) (UniProt Q7L7X3)
TTK (human) = TTK (human) (UniProt P33981)

Chain of NEK2 (human) (P51955 whole entry, looked up): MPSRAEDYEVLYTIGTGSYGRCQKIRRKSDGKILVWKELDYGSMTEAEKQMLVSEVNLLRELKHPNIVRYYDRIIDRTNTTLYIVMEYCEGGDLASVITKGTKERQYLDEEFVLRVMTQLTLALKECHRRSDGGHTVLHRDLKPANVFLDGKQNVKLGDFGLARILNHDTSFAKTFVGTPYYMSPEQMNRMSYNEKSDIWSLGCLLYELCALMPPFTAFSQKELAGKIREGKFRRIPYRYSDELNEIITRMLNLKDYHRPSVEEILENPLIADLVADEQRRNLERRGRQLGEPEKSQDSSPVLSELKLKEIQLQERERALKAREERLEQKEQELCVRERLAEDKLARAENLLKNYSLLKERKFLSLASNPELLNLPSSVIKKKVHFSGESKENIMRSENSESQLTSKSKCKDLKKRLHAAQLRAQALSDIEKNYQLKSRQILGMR
Chain of PKN2 (human) (Q16513 whole entry, looked up): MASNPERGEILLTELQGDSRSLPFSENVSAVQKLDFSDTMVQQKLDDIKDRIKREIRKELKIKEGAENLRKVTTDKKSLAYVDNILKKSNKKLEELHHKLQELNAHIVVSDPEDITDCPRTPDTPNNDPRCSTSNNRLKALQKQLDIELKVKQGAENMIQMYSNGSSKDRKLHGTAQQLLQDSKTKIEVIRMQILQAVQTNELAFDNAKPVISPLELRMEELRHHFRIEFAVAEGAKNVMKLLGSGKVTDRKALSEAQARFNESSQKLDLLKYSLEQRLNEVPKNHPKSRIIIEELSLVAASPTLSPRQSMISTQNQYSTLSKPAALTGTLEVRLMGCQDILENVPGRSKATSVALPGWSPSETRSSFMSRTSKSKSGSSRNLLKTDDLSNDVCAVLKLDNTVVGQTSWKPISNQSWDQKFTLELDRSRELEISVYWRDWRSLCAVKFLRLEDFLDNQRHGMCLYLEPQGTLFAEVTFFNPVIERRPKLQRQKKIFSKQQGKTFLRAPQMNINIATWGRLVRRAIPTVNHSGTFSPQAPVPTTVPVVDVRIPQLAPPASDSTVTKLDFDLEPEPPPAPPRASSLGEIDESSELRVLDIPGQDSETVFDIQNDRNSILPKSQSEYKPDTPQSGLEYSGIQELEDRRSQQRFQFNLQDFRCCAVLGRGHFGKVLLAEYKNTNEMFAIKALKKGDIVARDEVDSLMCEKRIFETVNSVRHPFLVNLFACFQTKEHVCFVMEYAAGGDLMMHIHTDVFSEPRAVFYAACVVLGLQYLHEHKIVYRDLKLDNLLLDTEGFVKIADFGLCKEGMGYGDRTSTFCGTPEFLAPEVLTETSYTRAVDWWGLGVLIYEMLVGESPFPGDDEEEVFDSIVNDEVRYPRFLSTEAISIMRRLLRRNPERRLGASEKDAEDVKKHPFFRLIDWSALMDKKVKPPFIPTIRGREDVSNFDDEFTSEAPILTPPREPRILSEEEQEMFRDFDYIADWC
Chain of MYLK (human) (Q15746 whole entry, looked up): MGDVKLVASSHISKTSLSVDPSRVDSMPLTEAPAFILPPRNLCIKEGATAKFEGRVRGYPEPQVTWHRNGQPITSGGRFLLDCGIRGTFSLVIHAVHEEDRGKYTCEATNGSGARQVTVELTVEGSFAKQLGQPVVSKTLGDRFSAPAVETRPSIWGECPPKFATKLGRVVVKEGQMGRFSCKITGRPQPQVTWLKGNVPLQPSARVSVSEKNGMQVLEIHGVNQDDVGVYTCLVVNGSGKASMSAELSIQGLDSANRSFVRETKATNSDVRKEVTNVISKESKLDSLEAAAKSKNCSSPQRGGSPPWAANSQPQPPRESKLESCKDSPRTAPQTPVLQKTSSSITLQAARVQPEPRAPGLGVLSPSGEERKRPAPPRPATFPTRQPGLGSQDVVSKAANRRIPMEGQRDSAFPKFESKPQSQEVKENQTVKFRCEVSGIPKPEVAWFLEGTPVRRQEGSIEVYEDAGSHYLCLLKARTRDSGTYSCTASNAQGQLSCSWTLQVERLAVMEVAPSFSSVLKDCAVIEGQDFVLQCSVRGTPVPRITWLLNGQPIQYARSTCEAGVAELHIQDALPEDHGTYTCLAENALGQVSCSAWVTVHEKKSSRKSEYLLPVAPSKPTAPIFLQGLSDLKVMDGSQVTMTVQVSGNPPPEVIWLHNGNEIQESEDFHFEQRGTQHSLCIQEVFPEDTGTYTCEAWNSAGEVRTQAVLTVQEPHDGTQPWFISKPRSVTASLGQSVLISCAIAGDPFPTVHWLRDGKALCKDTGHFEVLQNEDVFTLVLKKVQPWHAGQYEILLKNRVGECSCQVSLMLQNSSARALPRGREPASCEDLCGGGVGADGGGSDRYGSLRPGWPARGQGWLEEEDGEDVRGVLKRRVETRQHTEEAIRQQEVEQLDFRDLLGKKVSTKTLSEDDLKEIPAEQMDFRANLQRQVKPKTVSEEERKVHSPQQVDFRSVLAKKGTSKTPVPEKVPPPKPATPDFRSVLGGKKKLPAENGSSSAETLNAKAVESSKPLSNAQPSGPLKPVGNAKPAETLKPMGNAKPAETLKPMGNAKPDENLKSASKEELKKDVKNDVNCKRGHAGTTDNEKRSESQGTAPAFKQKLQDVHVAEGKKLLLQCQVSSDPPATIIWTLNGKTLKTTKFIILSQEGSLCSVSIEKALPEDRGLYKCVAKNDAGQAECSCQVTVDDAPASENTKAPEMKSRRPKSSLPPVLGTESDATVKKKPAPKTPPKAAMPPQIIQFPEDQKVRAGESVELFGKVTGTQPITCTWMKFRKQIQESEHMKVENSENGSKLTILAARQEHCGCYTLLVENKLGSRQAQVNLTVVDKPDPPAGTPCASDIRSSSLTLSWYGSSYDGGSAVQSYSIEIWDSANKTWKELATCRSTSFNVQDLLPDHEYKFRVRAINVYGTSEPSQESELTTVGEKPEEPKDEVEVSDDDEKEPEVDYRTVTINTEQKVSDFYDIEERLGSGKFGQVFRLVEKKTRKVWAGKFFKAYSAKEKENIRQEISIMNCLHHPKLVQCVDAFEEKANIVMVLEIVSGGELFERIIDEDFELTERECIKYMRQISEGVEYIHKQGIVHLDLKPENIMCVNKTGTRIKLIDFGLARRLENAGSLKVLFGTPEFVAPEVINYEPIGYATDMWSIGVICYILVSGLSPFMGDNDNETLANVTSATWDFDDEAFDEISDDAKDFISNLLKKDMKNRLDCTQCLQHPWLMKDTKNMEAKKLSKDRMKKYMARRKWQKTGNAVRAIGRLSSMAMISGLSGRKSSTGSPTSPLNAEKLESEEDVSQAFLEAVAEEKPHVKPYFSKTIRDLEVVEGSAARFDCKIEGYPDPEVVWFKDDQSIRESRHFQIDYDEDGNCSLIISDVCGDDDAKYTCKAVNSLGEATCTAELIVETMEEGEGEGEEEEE
Chain of RPS6KB1 (human), P23443 [T412E] (P23443 whole entry T412E, looked up): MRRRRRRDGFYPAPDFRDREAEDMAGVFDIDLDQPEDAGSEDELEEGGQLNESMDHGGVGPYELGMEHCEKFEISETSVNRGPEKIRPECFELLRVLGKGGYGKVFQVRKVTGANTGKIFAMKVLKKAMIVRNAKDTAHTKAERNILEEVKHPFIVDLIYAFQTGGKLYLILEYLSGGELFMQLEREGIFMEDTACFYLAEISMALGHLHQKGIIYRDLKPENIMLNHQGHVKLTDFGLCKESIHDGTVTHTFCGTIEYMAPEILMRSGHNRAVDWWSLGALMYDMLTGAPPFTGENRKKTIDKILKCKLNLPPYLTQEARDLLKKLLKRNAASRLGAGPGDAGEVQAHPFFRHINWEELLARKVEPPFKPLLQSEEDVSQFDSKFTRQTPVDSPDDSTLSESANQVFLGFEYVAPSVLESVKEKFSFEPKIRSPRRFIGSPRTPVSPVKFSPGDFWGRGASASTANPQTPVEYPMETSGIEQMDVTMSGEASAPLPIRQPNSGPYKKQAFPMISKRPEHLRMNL
Chain of MARK2 (human) (Q7KZI7 whole entry, looked up): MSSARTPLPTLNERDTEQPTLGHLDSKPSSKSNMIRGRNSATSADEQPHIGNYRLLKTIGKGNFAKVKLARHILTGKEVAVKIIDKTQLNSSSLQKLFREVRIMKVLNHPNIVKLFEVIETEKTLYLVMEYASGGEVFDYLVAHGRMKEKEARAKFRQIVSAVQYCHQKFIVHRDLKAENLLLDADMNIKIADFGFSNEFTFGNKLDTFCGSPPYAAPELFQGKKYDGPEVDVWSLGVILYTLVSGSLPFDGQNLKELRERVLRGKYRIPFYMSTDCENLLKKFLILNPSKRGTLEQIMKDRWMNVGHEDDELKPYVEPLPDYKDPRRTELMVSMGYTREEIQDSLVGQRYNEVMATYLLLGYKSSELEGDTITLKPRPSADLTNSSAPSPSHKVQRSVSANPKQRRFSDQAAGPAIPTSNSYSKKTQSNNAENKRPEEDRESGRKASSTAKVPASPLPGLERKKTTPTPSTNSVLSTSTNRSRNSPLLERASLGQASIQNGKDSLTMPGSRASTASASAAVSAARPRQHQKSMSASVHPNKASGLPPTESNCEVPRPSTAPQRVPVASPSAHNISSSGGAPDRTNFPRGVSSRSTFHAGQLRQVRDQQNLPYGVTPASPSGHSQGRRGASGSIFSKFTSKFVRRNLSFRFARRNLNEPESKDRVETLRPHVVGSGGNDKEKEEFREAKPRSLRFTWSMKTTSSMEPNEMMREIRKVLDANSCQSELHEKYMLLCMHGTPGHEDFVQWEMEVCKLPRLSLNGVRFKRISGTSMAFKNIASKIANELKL
Chain of MAPK12 (human) (P53778 whole entry, looked up): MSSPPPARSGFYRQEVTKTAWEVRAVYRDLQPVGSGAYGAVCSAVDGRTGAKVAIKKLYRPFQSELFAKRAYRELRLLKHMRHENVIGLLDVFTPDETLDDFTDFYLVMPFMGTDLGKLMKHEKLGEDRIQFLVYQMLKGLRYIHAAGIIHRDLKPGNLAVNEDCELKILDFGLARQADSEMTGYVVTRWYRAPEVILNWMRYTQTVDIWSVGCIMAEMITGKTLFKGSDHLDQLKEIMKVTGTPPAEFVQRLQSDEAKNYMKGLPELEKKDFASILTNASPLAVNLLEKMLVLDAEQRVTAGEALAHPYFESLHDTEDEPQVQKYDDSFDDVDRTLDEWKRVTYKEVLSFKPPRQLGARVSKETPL

- residual activity (CHEK2 (human); compound 1.0 µM): 119%
- residual activity (CHEK2 (human); compound 10.0 µM): 97%
- residual activity (CLK2 (human); compound 1.0 µM): 120%
- residual activity (CLK2 (human); compound 10.0 µM): 112%
- residual activity (DAPK1 (human); compound 1.0 µM): 112%
- residual activity (DAPK1 (human); compound 10.0 µM): 100%
- residual activity (DYRK2 (human); compound 1.0 µM): 107%
- residual activity (DYRK2 (human); compound 10.0 µM): 98%
- residual activity (DYRK3 (human); compound 1.0 µM): 103%
- residual activity (DYRK3 (human); compound 10.0 µM): 93%
- residual activity (EPHA2 (human); compound 1.0 µM): 113%
- residual activity (EPHA2 (human); compound 10.0 µM): 111%
- residual activity (EPHB1 (human)): 104%
- residual activity (EPHB2 (human); compound 1.0 µM): 120%
- residual activity (EPHB2 (human); compound 10.0 µM): 109%
- residual activity (EPHB4 (human); compound 1.0 µM): 112%
- residual activity (EPHB4 (human); compound 10.0 µM): 120%
- residual activity (FLT1 (human); compound 1.0 µM): 100%
- residual activity (FLT1 (human); compound 10.0 µM): 107%
- residual activity (GCK (human); compound 1.0 µM): 106%
- residual activity (GCK (human); compound 10.0 µM): 108%
- residual activity (HIPK2 (human); compound 1.0 µM): 122%
- residual activity (HIPK2 (human); compound 10.0 µM): 106%
- residual activity (IKBKE (human); compound 1.0 µM): 104%
- residual activity (IKBKE (human); compound 10.0 µM): 99%
- residual activity (IRAK4 (human); compound 1.0 µM): 83%
- residual activity (IRAK4 (human); compound 10.0 µM): 95%
- residual activity (MAPK12 (human); compound 1.0 µM): 109%
- residual activity (MAPK12 (human); compound 10.0 µM): 96%
- residual activity (MAPK14 (human); compound 1.0 µM): 102%
- residual activity (MAPK14 (human); compound 10.0 µM): 83%
- residual activity (MAPKAPK2 (human); compound 1.0 µM): 108%
- residual activity (MAPKAPK2 (human); compound 10.0 µM): 93%
- residual activity (MAPKAPK5 (human); compound 1.0 µM): 100%
- residual activity (MAPKAPK5 (human); compound 10.0 µM): 95%
- residual activity (MARK1 (human); compound 1.0 µM): 99%
- residual activity (MARK1 (human); compound 10.0 µM): 98%
- residual activity (MARK2 (human); compound 1.0 µM): 104%
- residual activity (MARK2 (human); compound 10.0 µM): 102%
- residual activity (MELK (human); compound 1.0 µM): 94%
- residual activity (MELK (human); compound 10.0 µM): 98%
- residual activity (MYLK (human); compound 1.0 µM): 102%
- residual activity (MYLK (human); compound 10.0 µM): 89%
- residual activity (NEK2 (human); compound 1.0 µM): 107%
- residual activity (NEK2 (human); compound 10.0 µM): 95%
- residual activity (PIM1 (human); compound 1.0 µM): 105%
- residual activity (PIM1 (human); compound 10.0 µM): 106%
- residual activity (PIM3 (human); compound 1.0 µM): 111%
- residual activity (PIM3 (human); compound 10.0 µM): 95%
- residual activity (PKN2 (human); compound 1.0 µM): 121%
- residual activity (PKN2 (human); compound 10.0 µM): 91%
- residual activity (PRKCA (human)): 118%
- residual activity (ROCK2 (rat); compound 1.0 µM): 94%
- residual activity (ROCK2 (rat); compound 10.0 µM): 84%
- residual activity (RPS6KA1 KD1 KD2 (human); compound 1.0 µM): 107%
- residual activity (RPS6KA1 KD1 KD2 (human); compound 10.0 µM): 114%
- residual activity ([1]; compound 1.0 µM): 115%
- residual activity ([1]; compound 10.0 µM): 111%
- residual activity ([2]; compound 1.0 µM): 113%
- residual activity ([2]; compound 10.0 µM): 100%
- residual activity (STK3 (human); compound 1.0 µM): 112%
- residual activity (STK3 (human); compound 10.0 µM): 112%
- residual activity (TAOK1 (human); compound 1.0 µM): 118%
- residual activity (TAOK1 (human); compound 10.0 µM): 100%
- residual activity (TTK (human); compound 1.0 µM): 73%
- residual activity (TTK (human); compound 10.0 µM): 76%
Structure (SMILES): Cc1ccc(=O)n(-c2ccccc2)c1
